Earlier results on nine compounds are cited in patent US20140186466A1, “NEUTRACEUTICAL FORMULATION FOR TREATMENT OF DIABETES” (Creative Medical Health Inc., priority 2012, published 2014).

Like-named read-outs stand apart in the source and are kept apart here.

For data set [1] the following is noted: in vivo.
The target in another data set is dipeptidyl peptidase-IV (Homo sapiens, UniProt P27487).
Data set [2] concerns patients with hypertension. The note with it: 60 patients with hypertension; 20 mmol/d, 8 weeks.
The test system of data set [3] is patients with type 2 diabetes. The note with it: 57 patients, 300 mg daily or placebo, eight weeks.
A further data set deals with type 1 diabetic patients. The note with it: 51 type 1 diabetic patients; 600 mg once daily, 5 weeks.
The test system of a further data set is peripheral neuropathy. To be noted: intravenously 600 mg/day over 3 weeks.
Data set [4] concerns Streptozotocin-induced diabetic animals. The note with it: 4 weeks.
Data set [5] concerns inflammatory pathways involved in diabetic nephropathy. The note with it: rat model; 22 micrograms in water for 12 weeks (8 mcg/day).
The subject of the next data set is HIV-positive subjects. The note with it: 1000 µg/day, eight weeks.
The subject of data set [6] is ischemia-reperfusion insult in rats. The note with it: 10 mg chromium/kg diet for six weeks.
Data set [7] has as its system diabetic rats.
A further data set concerns diabetic rat brains. To be noted: 0.6 mg/mL in drinking water, 4 weeks.
For a further data set, the system named is mesenteric vascular bed. The note with it: STZ diabetic rats; 10 g/L in drinking water, 8 weeks; intact and denuded endothelium.
In data set [8] the test system is streptozotocin diabetic rats. To be noted: 10 g/l in drinking water, eight weeks.
Data set [9] deals with skin microvasculature of diabetic rats. To be noted: streptozotocin-diabetic male Wistar rats; 10 g/l in drinking water.
The subject of data set [10] is diabetic rats. To be noted: 100 mg/kg, 60 days.
Data set [11] has as its system patients with diabetes. To be noted: 500 mg or 1000 mg three times a day, 52 weeks.
The test system of the next data set is tissue uptake of glucose. To be noted: healthy patients and patients with type 2 diabetes.
Data set [12] has as its system patients with diabetes. To be noted: 2000 IU/daily for 18 months.
Where [13] appears, read: diabetic rats, 1 mg/kg body weight.

Sequence of dipeptidyl peptidase-IV (P27487 whole entry, species assumed): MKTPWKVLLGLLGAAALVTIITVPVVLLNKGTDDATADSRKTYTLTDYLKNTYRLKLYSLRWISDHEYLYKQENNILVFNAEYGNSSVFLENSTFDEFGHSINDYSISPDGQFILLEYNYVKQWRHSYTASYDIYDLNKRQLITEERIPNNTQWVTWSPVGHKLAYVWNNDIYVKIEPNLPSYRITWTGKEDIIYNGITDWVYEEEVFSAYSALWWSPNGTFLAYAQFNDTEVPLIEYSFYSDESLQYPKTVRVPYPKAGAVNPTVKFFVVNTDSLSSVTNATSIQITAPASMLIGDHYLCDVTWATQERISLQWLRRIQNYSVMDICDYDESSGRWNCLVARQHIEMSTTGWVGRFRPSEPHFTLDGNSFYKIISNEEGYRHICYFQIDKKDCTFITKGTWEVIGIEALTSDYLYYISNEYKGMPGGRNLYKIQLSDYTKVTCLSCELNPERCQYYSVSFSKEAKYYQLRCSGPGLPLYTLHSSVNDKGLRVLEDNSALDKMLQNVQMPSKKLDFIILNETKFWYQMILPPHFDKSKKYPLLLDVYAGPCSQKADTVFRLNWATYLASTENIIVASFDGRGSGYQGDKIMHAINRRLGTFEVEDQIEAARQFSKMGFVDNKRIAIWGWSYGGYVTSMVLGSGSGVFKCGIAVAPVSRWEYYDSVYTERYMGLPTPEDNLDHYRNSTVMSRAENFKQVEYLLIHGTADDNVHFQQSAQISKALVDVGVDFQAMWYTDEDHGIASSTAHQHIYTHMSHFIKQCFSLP

`CN(C)C(=N)N=C(N)N` [metformin, Metformin]: in data set [1], the glucose utilization entry was “increased” and the leptin concentrations entry was “reduction”. At dipeptidyl peptidase-IV, the “dipeptidyl peptidase-IV activity” value is on record as “inhibition”.
Consider `[O]=[Mg]` [magnesium oxide], for which, in data set [2], the “ambulatory BP reduction, first value of the pair” value is 2.5 mm Hg; the “ambulatory BP reduction, second value of the pair” value was 1.4 mm Hg; the “home BP decrease, first value of the pair” value is recorded as 2.0 mm Hg; the “home BP decrease, second value of the pair” value was 1.4 mm Hg. In data set [2], the “office BP fall, first value of the pair” value is recorded as 3.7 mm Hg and the “office BP fall, second value of the pair” value is on record as 1.7 mm Hg.
`O=C(O)CCCCC1CCSS1` (stereo not drawn) [alpha lipoic acid]: the “fasting blood glucose levels” value in data set [3] is recorded as “reduced”. Also, in the data set on type 1 diabetic patients, the “measures of platelet reactivity” value is “reduced”. Also, the neuropathic pain result in the data set on peripheral neuropathy is given as “clinically relevant reduction”.
In the case of chromium picolinate, in [4] (1 mg/kg body weight daily), the plasma glucose levels result is “lowered” and the “weight loss in diabetic animals” value was “increased”. Also, the “glycogen content in the livers” value in [4] (1 mg/kg body weight daily, to near control levels) is on record as “normalized”. In data set [4] (setting [13]), the action of insulin result is “potentiate”, the plasma cholesterol levels entry is “lower” and the plasma triglyceride levels entry was “lower”. Besides, in [5], the “activity of inflammatory pathways involved in diabetic nephropathy” value was “reducing the activity”. Further, the “mean rate of glucose disposal after treatment” value in the data set on HIV-positive subjects (eight HIV-positive subjects on antiretroviral therapy, before 4.41, range 3.19-12.78, p=0.03) is on record as 6.51 mg/kg LBM/min. Besides, the “increase of mean rate of glucose disposal” value in the data set with HIV-positive subjects (eight HIV-positive subjects) is reported as 25%. For the same compound, in data set [6], the “myocardial contractility and relaxation following ischemia-reperfusion insult” value was “recovery”. In addition, in the data set with diabetic rats [7] (high dose 13.20 μg Cr kg(−1) day(−1), relative to control (non-diabetic) levels), the “elevated hepatic and cerebral free fatty acids and malondialdehyde” value was “nearly normalized”. Also, the “elevated hepatic and cerebral free fatty acids and malondialdehyde” value in the data set with diabetic rats [7] (low (human equivalent) dose 2.90 μg Cr kg(−1) day(−1)) is “significantly reduced”.
With `[Na+].[Na+].[Na+].[O]=[V]([O-])([O-])[O-]` [sodium orthovanadate], in the data set on diabetic rat brains, the “ischemic injury in diabetic rat brains” value was “significantly reduced” and the neurobehavioral function result is recorded as “improved”.
In the case of `O=S(=O)([O-])[O-].[Mg+2]` [magnesium sulfate], in the data set on mesenteric vascular bed, the “mean perfusion pressure of mesenteric vascular bed” value was “decrease”. Also, the plasma glucose entry in data set [8] (STZ 40 mg/kg i.v. diabetic rats) was “to normal levels”. For the same compound, in [8] (STZ diabetic rats), the “high density lipoprotein (HDL)” value is “to normal levels”, the “low density lipoprotein (LDL)” value is recorded as “to normal levels”, the “mesenteric fat/body weight ratio” value is given as “reductions” and the systolic blood pressure result was “to normal levels”. In data set [8] (STZ diabetic rats), the total cholesterol entry is “to normal levels”, the triglyceride entry is recorded as “to normal levels” and the “very low density lipoprotein (VLDL)” value is “to normal levels”. In addition, the “endothelial relaxation stimulated with acetylcholine (Ach) or sodium nitroprusside (SNP)” value in [9] is “enhanced”.
Consider `O=S(=O)([O-])[O-].[O]=[V+2]` [vanadyl sulfate], for which, in the data set with diabetic rats [10], the blood glucose levels entry is on record as “lower” and the “serum antioxidant enzyme levels in muscle tissue” value was “decrease”.
For `CC(=O)O[C@H](CC(=O)[O-])C[N+](C)(C)C` [acetyl-L-carnitine], in the data set on patients with diabetes [11], the nerve fiber regeneration entry is listed as “improvements” and the neuropathic pain entry is “symptomatic relief”. For the same compound, the “tissue uptake of glucose” value in the data set with tissue uptake of glucose was “dose-dependent effects”.
For the compound `C=C1CC[C@H](O)C/C1=C/C=C1\CCC[C@]2(C)[C@@H]([C@H](C)CCCC(C)C)CC[C@@H]12` [Vitamin D3], the serum lipid profiles entry in the data set with patients with diabetes [12] is “beneficial effects”.
